Results reported in ChEMBL document CHEMBL4715829, “Heterodimeric Rifampicin-Tobramycin conjugates break intrinsic resistance of Pseudomonas aeruginosa to doxycycline and chloramphenicol in vitro and in a Galleria mellonella in vivo model” (Eur J Med Chem, 2019).

Key:
Pseudomonas aeruginosa [1] = assay: Antibacterial activity against Pseudomonas aeruginosa 91433 assessed as fractional inhibitory concentration index incubated for 18 hrs in presence of tigecycline by broth microdilution assay; format: functional
Pseudomonas aeruginosa [2] = assay: Antibacterial activity against Pseudomonas aeruginosa 114228 assessed as fractional inhibitory concentration index incubated for 18 hrs in presence of minocycline by broth microdilution assay; format: functional
Pseudomonas aeruginosa [3] = assay: Antibacterial activity against Pseudomonas aeruginosa 114228 assessed as potentiation of doxycycline-induced antibacterial activity by measuring doxycycline MIC at 9.8 uM incubated for 18 hrs in presence of doxycycline by broth microdilution assay (reference value: 32 ug/ml); format: functional
Pseudomonas aeruginosa [4] = assay: Antibacterial activity against Pseudomonas aeruginosa 100036 assessed as fractional inhibitory concentration index incubated for 18 hrs in presence of minocycline by broth microdilution assay; format: functional
Pseudomonas aeruginosa [5] = assay: Antibacterial activity against Pseudomonas aeruginosa 114228 assessed as potentiation of chloramphenicol-induced antibacterial activity by measuring chloramphenicol MIC at 9.8 uM incubated for 18 hrs in presence of chloramphenicol by broth microdilution assay (reference value: 64 ug/ml); format: functional
Pseudomonas aeruginosa [6] = assay: Antibacterial activity against Pseudomonas aeruginosa 264-101354 assessed as potentiation of doxycycline-induced antibacterial activity by measuring doxycycline MIC at 9.8 uM incubated for 18 hrs in presence of doxycycline by broth microdilution assay (reference value: 64 ug/ml); format: functional
Pseudomonas aeruginosa [7] = assay: Antibacterial activity against Pseudomonas aeruginosa 259-96918 assessed as fractional inhibitory concentration incubated for 18 hrs in presence of tigecycline by broth microdilution assay; format: functional
[8] = Toxicity in Galleria mellonella larvae assessed as larval survival at 100 mg/kg measured after 96 hrs; format: organism-based; conditions: in vivo
Pseudomonas aeruginosa [9] = assay: Antibacterial activity against Pseudomonas aeruginosa 101243 assessed as potentiation of chloramphenicol-induced antibacterial activity by measuring chloramphenicol MIC at 9.8 uM incubated for 18 hrs in presence of chloramphenicol by broth microdilution assay (reference value: 1 ug/ml); format: functional
[10] = Toxicity in Galleria mellonella larvae assessed as larval survival at 200 mg/kg measured after 96 hrs; format: organism-based; conditions: in vivo
Pseudomonas aeruginosa [11] = assay: Antibacterial activity against Pseudomonas aeruginosa 264-101354 assessed as fractional inhibitory concentration incubated for 18 hrs in presence of minocycline by broth microdilution assay; format: functional
Pseudomonas aeruginosa [12] = assay: Antibacterial activity against Pseudomonas aeruginosa 91433 assessed as potentiation of chloramphenicol-induced antibacterial activity by measuring chloramphenicol MIC at 9.8 uM incubated for 18 hrs in presence of chloramphenicol by broth microdilution assay (reference value: 8 ug/ml); format: functional
Pseudomonas aeruginosa [13] = assay: Antibacterial activity against Pseudomonas aeruginosa 101885 assessed as fractional inhibitory concentration index incubated for 18 hrs in presence of rifampicin by broth microdilution assay; format: functional
Pseudomonas aeruginosa [14] = assay: Antibacterial activity against Pseudomonas aeruginosa 100036 assessed as fractional inhibitory concentration index incubated for 18 hrs in presence of tigecycline by broth microdilution assay; format: functional
HEK293 = assay: Cytotoxicity against human HEK293 cells assessed as cell viability at 50 uM incubated for 48 hrs in presence of doxycycline by prestoblue assay; format: cell-based; conditions: hek293, 48 h
Pseudomonas aeruginosa [15] = assay: Antibacterial activity against Pseudomonas aeruginosa 101243 assessed as fractional inhibitory concentration incubated for 18 hrs in presence of rifampicin by broth microdilution assay; format: functional
Pseudomonas aeruginosa [16] = assay: Potentiation of chloramphenicol-induced antibacterial activity against Pseudomonas aeruginosa 262-101856 assessed as fold change in chloramphenicol MIC at 9.8 uM incubated for 18 hrs in presence of chloramphenicol by broth microdilution assay relative to control; format: functional
Pseudomonas aeruginosa [17] = assay: Potentiation of chloramphenicol-induced antibacterial activity against Pseudomonas aeruginosa 259-96918 assessed as fold change in chloramphenicol MIC at 9.8 uM incubated for 18 hrs in presence of chloramphenicol by broth microdilution assay relative to control; format: functional
Pseudomonas aeruginosa [18] = assay: Potentiation of doxycycline-induced antibacterial activity against Pseudomonas aeruginosa 262-101856 assessed as fold change in doxycycline MIC at 9.8 uM incubated for 18 hrs in presence of doxycycline by broth microdilution assay relative to control; format: functional
Pseudomonas aeruginosa [19] = assay: Antibacterial activity against Pseudomonas aeruginosa 260-97103 infected in Galleria mellonella larvae assessed as survival of larvae at 100 mg/kg treated at 3 hrs post-infection in presence of chloramphenicol and measured after 24 hrs relative to control; format: functional
Pseudomonas aeruginosa [20] = assay: Antibacterial activity against Pseudomonas aeruginosa 264-101354 assessed as fractional inhibitory concentration index incubated for 18 hrs in presence of minocycline by broth microdilution assay; format: functional
Pseudomonas aeruginosa [21] = assay: Antibacterial activity against Pseudomonas aeruginosa 114228 assessed as potentiation of chloramphenicol-induced antibacterial activity by measuring chloramphenicol MIC at 7.6 uM incubated for 18 hrs in presence of chloramphenicol by broth microdilution assay (reference value: 64 ug/ml); format: functional
Pseudomonas aeruginosa [22] = assay: Potentiation of doxycycline-induced antibacterial activity against Pseudomonas aeruginosa 260-97103 assessed as fold change in doxycycline MIC at 7.6 uM incubated for 18 hrs in presence of doxycycline by broth microdilution assay relative to control; format: functional
Pseudomonas aeruginosa [23] = assay: Antibacterial activity against Pseudomonas aeruginosa 259-96918 assessed as potentiation of chloramphenicol-induced antibacterial activity by measuring chloramphenicol MIC at 7.6 uM incubated for 18 hrs in presence of chloramphenicol by broth microdilution assay (reference value: 1024 ug/ml); format: functional
Pseudomonas aeruginosa [24] = assay: Potentiation of doxycycline-induced antibacterial activity against Pseudomonas aeruginosa 100036 assessed as fold change in doxycycline MIC at 7.6 uM incubated for 18 hrs in presence of doxycycline by broth microdilution assay relative to control; format: functional
Pseudomonas aeruginosa [25] = assay: Antibacterial activity against Pseudomonas aeruginosa 259-96918 assessed as potentiation of doxycycline-induced antibacterial activity by measuring doxycycline MIC at 7.6 uM incubated for 18 hrs in presence of doxycycline by broth microdilution assay (reference value: 32 ug/ml); format: functional
Enterobacter cloacae = assay: Potentiation of doxycycline-induced antibacterial activity against Enterobacter cloacae ATCC 117029 assessed as fold change in doxycycline MIC at 7.6 uM incubated for 18 hrs in presence of doxycycline by broth microdilution assay relative to control; format: functional
Klebsiella pneumoniae = assay: Potentiation of chloramphenicol-induced antibacterial activity against Klebsiella pneumoniae ATCC 16381 assessed as fold change in chloramphenicol MIC at 7.6 uM incubated for 18 hrs in presence of chloramphenicol by broth microdilution assay relative to control; format: functional
Escherichia coli = assay: Potentiation of doxycycline-induced antibacterial activity against Escherichia coli ATCC 25922 assessed as fold change in doxycycline MIC at 7.6 uM incubated for 18 hrs in presence of doxycycline by broth microdilution assay relative to control; format: functional
Pseudomonas aeruginosa [26] = assay: Potentiation of chloramphenicol-induced antibacterial activity against Pseudomonas aeruginosa 260-97103 assessed as fold change in chloramphenicol MIC at 7.6 uM incubated for 18 hrs in presence of chloramphenicol by broth microdilution assay relative to control; format: functional
Pseudomonas aeruginosa [27] = assay: Antibacterial activity against Pseudomonas aeruginosa 264-101354 assessed as reduction in bacterial growth by measuring doxycycline MIC at 8 ug/ml incubated for 18 hrs in presence of doxycycline by broth microdilution assay (reference value: 64 ug/ml); format: functional; conditions: dose 8 µg/ml

Structure (SMILES): CO[C@H]1/C=C/O[C@@]2(C)Oc3c(C)c(O)c4c(O)c(c(/C=N/N5CCN(Cc6cn(CCCCCCO[C@@H]7[C@@H](O[C@H]8O[C@H](CO)[C@@H](O)[C@H](N)[C@H]8O)[C@H](N)C[C@H](N)[C@H]7O[C@H]7O[C@H](CN)[C@@H](O)C[C@H]7N)nn6)CC5)c(O)c4c3C2=O)NC(=O)/C(C)=C\C=C\[C@H](C)[C@H](O)[C@@H](C)[C@@H](O)[C@@H](C)[C@H](OC(C)=O)[C@@H]1C.Cl.Cl.Cl.Cl.Cl
- fractional inhibitory concentration index (FICI) (Pseudomonas aeruginosa [1]): 1.13
- fractional inhibitory concentration index (FICI) (Pseudomonas aeruginosa [2]): <0.28
- MIC (Pseudomonas aeruginosa [3]): 1 µg/mL
- fractional inhibitory concentration index (FICI) (Pseudomonas aeruginosa [4]): 0.13
- MIC (Pseudomonas aeruginosa [5]): 16 µg/mL
- MIC (Pseudomonas aeruginosa [6]): 0.125 µg/mL
- FIC (Pseudomonas aeruginosa [7]): <0.125
- survival at 96 h [8]: 100%
- MIC (Pseudomonas aeruginosa [9]): 0.125 µg/mL
- survival at 96 h [10]: 97%
- FIC (Pseudomonas aeruginosa [11]): 0.063
- MIC (Pseudomonas aeruginosa [12]): 2 µg/mL
- fractional inhibitory concentration index (FICI) (Pseudomonas aeruginosa [13]): 0.08
- fractional inhibitory concentration index (FICI) (Pseudomonas aeruginosa [14]): 0.13
- Activity (HEK293): Non-Toxic
- FIC (Pseudomonas aeruginosa [15]): 0.063
- fold change (FC) (Pseudomonas aeruginosa [16]): 4
- fold change (FC) (Pseudomonas aeruginosa [17]): 4
- fold change (FC) (Pseudomonas aeruginosa [18]): 4
- survival at 100 mg/kg (Pseudomonas aeruginosa [19]): 45%
- fractional inhibitory concentration index (FICI) (Pseudomonas aeruginosa [20]): 0.08

Structure (SMILES): CO[C@H]1/C=C/O[C@@]2(C)Oc3c(C)c(O)c4c(O)c(c(/C=N/N5CCN(Cc6cn(CCCCCCCCCCCCO[C@@H]7[C@@H](O[C@H]8O[C@H](CO)[C@@H](O)[C@H](N)[C@H]8O)[C@H](N)C[C@H](N)[C@H]7O[C@H]7O[C@H](CN)[C@@H](O)C[C@H]7N)nn6)CC5)c(O)c4c3C2=O)NC(=O)/C(C)=C\C=C\[C@H](C)[C@H](O)[C@@H](C)[C@@H](O)[C@@H](C)[C@H](OC(C)=O)[C@@H]1C.O=C(O)C(F)(F)F.O=C(O)C(F)(F)F.O=C(O)C(F)(F)F.O=C(O)C(F)(F)F.O=C(O)C(F)(F)F
- MIC (Pseudomonas aeruginosa [21]): 8 µg/mL
- fold change (FC) (Pseudomonas aeruginosa [22]): 4
- MIC (Pseudomonas aeruginosa [23]): 512 µg/mL
- fold change (FC) (Pseudomonas aeruginosa [24]): 4
- MIC (Pseudomonas aeruginosa [25]): 0.25 µg/mL
- fold change (FC) (Enterobacter cloacae): 0
- fold change (FC) (Klebsiella pneumoniae): 0
- fold change (FC) (Escherichia coli): 0
- fold change (FC) (Pseudomonas aeruginosa [26]): 4

Structure (SMILES): NC[C@H]1O[C@H](O[C@H]2[C@H](O)[C@@H](O[C@H]3O[C@H](CO)[C@@H](O)[C@H](N)[C@H]3O)[C@H](N)C[C@@H]2N)[C@H](N)C[C@@H]1O [TOBRAMYCIN]
- MIC (Pseudomonas aeruginosa [27]): 64 µg/mL
